Experimental data: PubChem BioAssay (NCI); in the data active = GI50 below about 0.43 µM; inactive = the rest
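Following 48 hours of exposure in 96-well plates, responses at five concentrations were used to interpolate endpoints linearly. GI50 marks 50% less growth. The concentration for full growth arrest is given as TGI.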

What was measured:
Assay in all cases: NCI-60 cell line screen, 48 h
[1] = system: 786-0 renal
[2] = system: A498 renal
[3] = system: A549 NSCLC
[4] = system: ACHN renal
[5] = system: CAKI-1 renal
[6] = system: CCRF-CEM leukemia
[7] = system: COLO 205 colon
[8] = system: DLD-1 colon
[9] = system: DMS 114 small cell lung
[10] = system: DMS 273 small cell lung
[11] = system: EKVX NSCLC
[12] = system: HCC-2998 colon
[13] = system: HCT-15 colon
[14] = system: HL-60(TB) leukemia
[15] = system: HOP-62 NSCLC
[16] = system: HOP-92 NSCLC
[17] = system: HT29 colon
[18] = system: IGROV1 ovarian
[19] = system: K-562 leukemia
[20] = system: KM12 colon
[21] = system: KM20L2 colon
[22] = system: LOX IMVI melanoma
[23] = system: LXFL 529 NSCLC
[24] = system: M14 melanoma
[25] = system: M19-MEL melanoma
[26] = system: MALME-3M melanoma
[27] = system: MOLT-4 leukemia
[28] = system: NCI-H226 lung
[29] = system: NCI-H23 lung
[30] = system: NCI-H460 lung
[31] = system: NCI-H522 lung
[32] = system: OVCAR-3 ovarian
[33] = system: OVCAR-4 ovarian
[34] = system: OVCAR-5 ovarian
[35] = system: OVCAR-8 ovarian
[36] = system: RPMI-8226 leukemia
[37] = system: RXF 393 renal
[38] = system: SF-268 CNS
[39] = system: SF-295 CNS
[40] = system: SF-539 CNS
[41] = system: SK-MEL-2 melanoma
[42] = system: SK-MEL-28 melanoma
[43] = system: SK-OV-3 ovarian
[44] = system: SN12C renal
[45] = system: SNB-19 CNS
[46] = system: SNB-75 CNS
[47] = system: SW-620 colon
[48] = system: TK-10 renal
[49] = system: UACC-257 melanoma
[50] = system: UACC-62 melanoma
[51] = system: UO-31 renal
[52] = system: XF 498 CNS
[53] = system: BT-549 breast
[54] = system: DU-145 prostate
[55] = system: HCT-116 colon
[56] = system: HS 578T breast
[57] = system: MCF7 breast
[58] = system: MDA-MB-231 breast
[59] = system: MDA-MB-435
[60] = system: MDA-N
[61] = system: NCI/ADR-RES ovarian
[62] = system: PC-3 prostate
[63] = system: SK-MEL-5 melanoma
[64] = system: SR leukemia
[65] = system: T-47D breast
[66] = system: U251 CNS
[67] = system: SNB-78 CNS

CCC(=O)CCC1=Nc2nnc(CCCCc3nnc4n3C(=O)C(CCC(=O)CC)=N4)n2C1=O
> 100 µM: TGI [1] | TGI [2] | TGI [3] | TGI [4] | TGI [5] | TGI [6] | TGI [7] | TGI [8] | TGI [9] | TGI [10] | TGI [11] | TGI [12] | TGI [13] | TGI [14] | TGI [15] | TGI [16] | TGI [17] | TGI [18] | TGI [19] | TGI [20] | TGI [21] | TGI [22] | TGI [23] | TGI [24] | TGI [25] | TGI [26] | TGI [27] | TGI [28] | TGI [29] | TGI [30] | TGI [31] | TGI [32] | TGI [33] | TGI [34] | TGI [35] | TGI [36] | TGI [37] | TGI [38] | TGI [39] | TGI [40] | TGI [41] | TGI [42] | TGI [43] | TGI [44] | TGI [45] | TGI [46] | TGI [47] | TGI [48] | TGI [49] | TGI [50] | TGI [51] | TGI [52]

CC1(C)CCC[C@@]2(C)C1CC[C@@]1(CO1)[C@@H]2/C=C\C(C=O)CC=O (stereo partly drawn)
> 74.4 µM: TGI [14]
99.2 µM: TGI [64]
> 69.5 µM: TGI [19]
> 28.1 µM: TGI [36]
62.2 µM: TGI [27]
> 68.7 µM: TGI [6]
> 100 µM: TGI [1] | TGI [2] | TGI [3] | TGI [4] | TGI [53] | TGI [5] | TGI [7] | TGI [54] | TGI [11] | TGI [12] | TGI [55] | TGI [13] | TGI [15] | TGI [16] | TGI [56] | TGI [17] | TGI [18] | TGI [20] | TGI [22] | TGI [24] | TGI [26] | TGI [57] | TGI [58] | TGI [59] | TGI [60] | TGI [28] | TGI [29] | TGI [30] | TGI [31] | TGI [61] | TGI [32] | TGI [33] | TGI [34] | TGI [35] | TGI [62] | TGI [37] | TGI [38] | TGI [39] | TGI [40] | TGI [41] | TGI [42] | TGI [63] | TGI [43] | TGI [44] | TGI [45] | TGI [46] | TGI [47] | TGI [65] | TGI [48] | TGI [66] | TGI [49] | TGI [50] | TGI [51]

CC(O)C1OC(n2ccc(=O)[nH]c2=O)CC1n1cncn1 (stereo not drawn)
> 100 µM: TGI [1] | TGI [2] | TGI [3] | TGI [4] | TGI [5] | TGI [6] | TGI [7] | TGI [8] | TGI [9] | TGI [10] | TGI [11] | TGI [12] | TGI [55] | TGI [13] | TGI [14] | TGI [15] | TGI [17] | TGI [18] | TGI [19] | TGI [20] | TGI [21] | TGI [22] | TGI [23] | TGI [24] | TGI [25] | TGI [26] | TGI [27] | TGI [28] | TGI [29] | TGI [30] | TGI [31] | TGI [32] | TGI [33] | TGI [34] | TGI [35] | TGI [36] | TGI [37] | TGI [38] | TGI [39] | TGI [41] | TGI [42] | TGI [63] | TGI [43] | TGI [44] | TGI [45] | TGI [46] | TGI [64] | TGI [47] | TGI [48] | TGI [66] | TGI [49] | TGI [50] | TGI [51] | TGI [52]
inactive: GI50 [46] > 100 µM

CC(C)=CCOc1ccc(-c2coc3cc4c(c(O)c3c2=O)C=CC(C)(C)O4)cc1
> 100 µM: TGI [1] | TGI [3] | TGI [4] | TGI [6] | TGI [7] | TGI [8] | TGI [9] | TGI [11] | TGI [12] | TGI [55] | TGI [13] | TGI [14] | TGI [15] | TGI [17] | TGI [18] | TGI [19] | TGI [20] | TGI [21] | TGI [22] | TGI [23] | TGI [25] | TGI [27] | TGI [28] | TGI [29] | TGI [30] | TGI [32] | TGI [34] | TGI [35] | TGI [36] | TGI [37] | TGI [38] | TGI [39] | TGI [42] | TGI [44] | TGI [45] | TGI [67] | TGI [64] | TGI [47] | TGI [48] | TGI [66] | TGI [49] | TGI [51] | TGI [52]
0.932 µM: TGI [63]
80 µM: TGI [33]
98.7 µM: TGI [2]
38.9 µM: TGI [31]
